Measurements from US11806343B2, “Inhibitors of DUX4 induction for regulation of muscle function” (Sonic Master Limited, priority 2017, dated 2023).
Values joined by “and” are separate entries in the source; they are usually repeats but may differ in a detail not shown here. Identical values can stand only once. Like-named read-outs stand apart in the source and are kept apart here.

How the values were obtained:
[1] = tested on: SRC; test: Immunofluorescence of nuclear phosphorylated SRC^416 in primary myocytes; assay type: cell-based, human; conditions: 100 nM or 500 nM, 1 hour
Description: Patient biopsy-derived primary myoblasts were seeded to a collagen-I coated plate in primary myoblast medium. Medium was changed every other day until cells reached 80% confluence followed by a switch to primary myotube medium. […] PRKDC (phosphorylated PRKDC^2609), active SRC (phosphorylated SRC^416), and nuclei.

[2] = tested on: 17MB026 primary FSHD-affected patient myotubes; test: Live cell imaging of % cell confluence through myotube formation; assay type: cell-based, human; conditions: 17MB026 primary myotubes, six concentrations, four days of myotube formation
Description: 17MB026 primary FSHD-affected patient myoblasts (obtained from the University of Rochester FSHD Biorepository) were thawed and cultured as described in Rickard et al., 2015 in primary myoblast medium. Cells (4000 per well) were seeded to a collagen-I coated 96-well plate in 100 μL primary myoblast medium. Medium was changed every other day until cells reached 80% confluence followed by a switch to 100 μL per well primary myotube medium. […] Cells were imaged in the phase contrast channel every six hours for four days and cell confluence in each image was quantified, Triplicate wells of each condition were averaged.

[3] = Acute pharmacokinetic study, plasma; assay type: in vivo, CD-1 mice; conditions: mouse plasma; for AUClast: 0 to 24 hours
Description: (§1) Intraperitoneal injection, which provides the drug via absorption into the mesenteric blood supply and is thus subject to hepatic first-pass metabolism, was used to approximate oral dosings total of 96 mice were utilized: 3 naive CD-1 male mice and 3 naïve CD-1 female mice were dosed per route of administration per 2 doses plus 3 naive CD-1 male mice and 3 naïve CD-1 female mice were per route of administration per dose for tissue collection. Following administration, blood, brain, and muscle samples were collected as follows; Two blood samples were collected from each mouse at 2 distinct timepoints over 24 bout post-dose to include 0.25, 0.5, 1, 2, 4, 8, and 24 hours. Blood samples were centrifuged to obtain plasma samples. For each time point, duplicate aliquots of plasma were transferred into an appropriately labeled sample tube containing a volume of buffer. The diluted plasma samples were stored at −20° C. for the first 24 hours and then transferred to −80° C. 24 hours of processing. Terminal brain and muscle samples were collected at 1 hour and 24 hours after administration. Tissue samples were temporarily put on dry ice and then stored at −20° C. for the first 24 hours and then transferred to −80° C. 24 hours of collection Plasma, brain and muscle samples were analyzed for test substance quantification using a method based on protein precipitation followed by HPLC-MS/MS analysis within optimized bioanalytical method.

[4] = tested on: 17MB026 primary FSHD-affected patient myotubes; test: FSHD primary patient biopsy myotube immunocytochemistry, Myosin Heavy Chain and nuclei; assay type: cell-based, human; conditions: 17MB026 primary myotubes, 2 nM-5 μM, 2.5 days
Description: FIG. 10 provides the workflow for assays performed with patient biopsy-derived muscle. On Day 0, patient myoblasts are passaged in a 96-well dish in primary myoblast medium (Genea BioCells). On Day 2, the medium is changed to […].
17MB026 primary FSHD-affected patient myoblasts (obtained from the University of Rochester FSHD Biorepository) were thawed and cultured as described in Rickard et al., 2015 in primary myoblast medium. Cells (6000 per well) were seeded to a collagen-I coated 96-well plate in 100 μl primary myoblast medium. Medium was changed every other day until cells reached 80% confluence followed by a switch to 100 μL per well primary myotube medium. […] Cells were fixed and analyzed after 2.5 days of myotube formation by immunocytochemistry and high-content imaging for DUX4, H3.X/Y, Myosin Heavy Chain expression and nuclei number. Five or six replicate wells were averaged per condition, […]

[5] = Tissue distribution study, brain and muscle; assay type: in vivo, CD-1 mice; conditions: mouse; for Uninjected muscle exposure / brain exposure: samples at 1 hour and 24 hours
Description: as §1
FIG. 31B. […] For IM injected animals, both the injected gastrocnemius muscle and the contralateral (uninjected gastrocnemius)) muscle were collected. […] Concentrations are shown as mean with SD, N=6

[6] = tested on: DUX4; test: DUX4 expression downregulation by kinase family inhibitors (Table 1); assay type: cell-based; conditions: at the lowest significant concentration; listed as DCC2036
[7] = tested on: DUX4; test: FSHD hESC-SkM immunocytochemistry, DUX4 expression; assay type: cell-based, human
Description: FIG. 6 provides an example of a screening and culturing workflow for hESC-SkM assays. At Day 0, hESC-derived myoblasts are thawed into a 96-well plate in myoblast medium (Genea BioCells). On Day 2, the medium is replaced with new myoblast medium containing 1.15 μM. Decitabine. […] On Day 7, the myotubes are analyzed. For example, the myotubes may be analyzed for MHC expression or DUX4 expression.
(§2) Genea049 FSHD-affected human Embryonic Stem Cells (hESCs) were differentiated using Genea's myogenic differentiation protocol (Caron et 2015) to the myoblast stage and cryopreserved. Frozen myoblasts were resuscitated and 4500 cells were plated into each well of a 96-well collagen I coated tissue culture plate in myoblast medium. After two days of cell growth medium was changed to 100 μL per well myoblast medium containing 1.15 μM Decitabine. […] Cells were allowed to differentiate to myotubes for four additional days then were fixed and analyzed for quantification of DUX4 expression, Myosin Heavy Chain expression, and nuclei number. Triplicate wells of each condition were averaged.
as §2, with “et al.,” for “et”, “number by high-content imaging.” for “number.”

[8] = IM, 10 mg/kg single dose, N = 6
[9] = IM, 50 mg/kg single dose, N = 6
[10] = IP, 10 mg/kg single dose, N = 6
[11] = IP, 50 mg/kg single dose, N = 6

CNC(=O)c1cc(Oc2ccc(NC(=O)Nc3cc(C(C)(C)C)nn3-c3ccc4ncccc4c3)c(F)c2)ccn1 [GBC0905, Rebastinib]
intensity distribution of nuclear phosphorylated SRC^416 (kinase activity) [1]: significant shift towards lower intensity levels | FSHD cell death measured by retained % cell confluence [2]: dose-dependent rescue of FSHD cell death | tmax ([3]; both sexes, CD-1, im, intramuscular injection, 10 or 50 mg/kg, read-out: median time to maximum concentration (Tmax)): 2 to 4 h | AUClast [3, 8]: 93.54 µg·h/mL | AUC∞ [3, 8]: 98.469 µg·h/mL | Cmax [3, 8]: 8203 ng/mL | MRT∞ [3, 8]: 7.83 h | t1/2 [3, 8]: 5.59 h | tmax [3, 8]: 2 h | AUClast [3, 9]: 222.518 µg·h/mL | AUC∞ [3, 9]: 256.486 µg·h/mL | Cmax [3, 9]: 15103 ng/mL | MRT∞ [3, 9]: 11.8 h | t1/2 [3, 9]: 8.10 h | tmax [3, 9]: 4 h | AUClast [3, 10]: 162.488 µg·h/mL | AUC∞ [3, 10]: 162.568 µg·h/mL | Cmax [3, 10]: 23683 ng/mL | MRT∞ [3, 10]: 4.46 h | t1/2 [3, 10]: 2.12 h | tmax [3, 10]: 2 h | AUClast [3, 11]: 651.387 µg·h/mL | AUC∞ [3, 11]: 651.534 µg·h/mL | Cmax [3, 11]: 81633 ng/mL | MRT∞ [3, 11]: 4.73 h | t1/2 [3, 11]: 1.90 h | tmax [3, 11]: 2 h | median time to maximum concentration (Tmax) ([3]; intraperitoneal injection, 10 or 50 mg/kg): 2 h | Myosin Heavy Chain and nuclei count [4]: without reducing Myosin Heavy Chain or nuclei count | Brain concentration ([5]; 24 hours after IM injection at 10 mg/kg): below the Lower Limit of Quantification (LLOQ) | Uninjected muscle exposure ([5]; intramuscular administration): ≤ 157 ng/g | brain exposure ([5]; intramuscular administration): ≤ 351 ng/g | Exposure of the injected muscle (gastrocnemius) ([5]; intramuscular dosing, after 24 hours): 1441667 ng/g | Uninjected muscle exposure ([5]; intraperitoneal administration): up to 1336 ng/g | brain exposure ([5]; intraperitoneal administration): up to 441 ng/g | Quantitation % of DUX4 reduction @the lowest significant [C] [6]: 66.39% and 51.75% and 79.76% and 82.94% | DUX4 expression ([7]; Genea049 hESC-SkM, 100 nM, four days of culture during myotube formation): decreased DUX4 expression | DUX4 expression, dose curve ([7]; Genea049 hESC-SkM, six concentration points 10 nM-3 μM, four days): dose-dependent decreased DUX4 expression | IC50 ([7]; Homo sapiens, Genea049 hESC-SkM dose curve, read-out: estimated IC50 value, DUX4-suppressive effect): ~100 nM
